In ChEMBL document CHEMBL1201862, “PubChem BioAssay data set” (2004):
The source made the active and inactive calls.

Legend:
[1] = test system: INS1; assay: INS-1E survival protection against cytokine death – cell-based, luminescence, retest, dose response (AID 449756); type: functional; conditions: Rattus norvegicus;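 also: cell death triggered by IL-1 beta plus TNF-alpha plus IFN-gamma mixture; protective hits raise ATP signal compared with cytokine alone wells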
[2] = target: COUP transcription factor 2 (Homo sapiens, UniProt P24468); assay: Luminescence-based cell-based high throughput dose response assay to identify inhibitors of COUP-TFII (NR2F2).; type: functional;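 also: HEK293 cells transiently cotransfected with COUP-TFII expression vector and reporter; luciferase reporter luminescence driven by COUP-TFII from the pX2-168 reporter plasmid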
[3] = test system: Jurkat; assay: blockers of NF-kB activation in T cells – Jurkat, luciferase reporter, luminescence, B- and T-cell, dose response (AID 489004); type: functional, cell-based; conditions: Homo sapiens;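 also: NF-kB luciferase reporter Jurkat cells stimulated with PMA plus ionomycin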
[4] = HEK-293T viability loss, compound-treated – cell-based, uHTS hits, cytotoxicity control for B/T-cell NF-kB inhibitor project, dose response (AID 489019); type: functional;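 also: IC50 reflects cytotoxicity as loss of cell viability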
[5] = target: T1, Hexokinase HKDC1 (Homo sapiens, UniProt Q2TB90); assay: inhibition of HKDC1 glucose phosphorylation – biochemical, W721R variant, dose response (AID 504729); type: functional
T1 sequence (Q2TB90 whole entry): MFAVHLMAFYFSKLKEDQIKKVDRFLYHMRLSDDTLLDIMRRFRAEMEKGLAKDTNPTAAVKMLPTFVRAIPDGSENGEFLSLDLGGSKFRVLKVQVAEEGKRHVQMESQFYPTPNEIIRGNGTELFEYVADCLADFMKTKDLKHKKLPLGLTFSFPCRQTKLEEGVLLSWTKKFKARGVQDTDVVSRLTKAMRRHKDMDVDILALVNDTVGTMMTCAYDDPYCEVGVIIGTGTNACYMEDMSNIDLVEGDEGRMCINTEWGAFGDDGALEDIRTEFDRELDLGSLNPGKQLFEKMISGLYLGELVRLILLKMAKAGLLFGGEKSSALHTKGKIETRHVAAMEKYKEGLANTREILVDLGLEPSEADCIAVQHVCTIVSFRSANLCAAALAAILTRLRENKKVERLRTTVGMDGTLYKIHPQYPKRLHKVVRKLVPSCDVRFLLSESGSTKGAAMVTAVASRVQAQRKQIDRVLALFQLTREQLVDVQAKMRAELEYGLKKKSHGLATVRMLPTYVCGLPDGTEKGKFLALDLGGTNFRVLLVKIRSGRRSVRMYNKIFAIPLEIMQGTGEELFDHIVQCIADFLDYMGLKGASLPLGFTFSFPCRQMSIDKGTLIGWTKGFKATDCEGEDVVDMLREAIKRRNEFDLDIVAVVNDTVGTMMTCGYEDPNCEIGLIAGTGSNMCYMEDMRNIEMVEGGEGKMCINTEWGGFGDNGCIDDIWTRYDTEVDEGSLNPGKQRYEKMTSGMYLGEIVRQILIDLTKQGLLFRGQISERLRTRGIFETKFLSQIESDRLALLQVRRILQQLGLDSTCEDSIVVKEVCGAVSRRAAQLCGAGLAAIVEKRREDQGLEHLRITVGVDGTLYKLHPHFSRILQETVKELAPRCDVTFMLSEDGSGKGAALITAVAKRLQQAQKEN

[6] = target: T2, Lysine-specific demethylase 4C (Homo sapiens, UniProt Q9H3R0); assay: inhibition of JMJD2C H3K9me3 demethylation – biochemical, DELFIA europium, cherry-picked samples, dose response (AID 488835); type: functional
T2 sequence (Q9H3R0 whole entry): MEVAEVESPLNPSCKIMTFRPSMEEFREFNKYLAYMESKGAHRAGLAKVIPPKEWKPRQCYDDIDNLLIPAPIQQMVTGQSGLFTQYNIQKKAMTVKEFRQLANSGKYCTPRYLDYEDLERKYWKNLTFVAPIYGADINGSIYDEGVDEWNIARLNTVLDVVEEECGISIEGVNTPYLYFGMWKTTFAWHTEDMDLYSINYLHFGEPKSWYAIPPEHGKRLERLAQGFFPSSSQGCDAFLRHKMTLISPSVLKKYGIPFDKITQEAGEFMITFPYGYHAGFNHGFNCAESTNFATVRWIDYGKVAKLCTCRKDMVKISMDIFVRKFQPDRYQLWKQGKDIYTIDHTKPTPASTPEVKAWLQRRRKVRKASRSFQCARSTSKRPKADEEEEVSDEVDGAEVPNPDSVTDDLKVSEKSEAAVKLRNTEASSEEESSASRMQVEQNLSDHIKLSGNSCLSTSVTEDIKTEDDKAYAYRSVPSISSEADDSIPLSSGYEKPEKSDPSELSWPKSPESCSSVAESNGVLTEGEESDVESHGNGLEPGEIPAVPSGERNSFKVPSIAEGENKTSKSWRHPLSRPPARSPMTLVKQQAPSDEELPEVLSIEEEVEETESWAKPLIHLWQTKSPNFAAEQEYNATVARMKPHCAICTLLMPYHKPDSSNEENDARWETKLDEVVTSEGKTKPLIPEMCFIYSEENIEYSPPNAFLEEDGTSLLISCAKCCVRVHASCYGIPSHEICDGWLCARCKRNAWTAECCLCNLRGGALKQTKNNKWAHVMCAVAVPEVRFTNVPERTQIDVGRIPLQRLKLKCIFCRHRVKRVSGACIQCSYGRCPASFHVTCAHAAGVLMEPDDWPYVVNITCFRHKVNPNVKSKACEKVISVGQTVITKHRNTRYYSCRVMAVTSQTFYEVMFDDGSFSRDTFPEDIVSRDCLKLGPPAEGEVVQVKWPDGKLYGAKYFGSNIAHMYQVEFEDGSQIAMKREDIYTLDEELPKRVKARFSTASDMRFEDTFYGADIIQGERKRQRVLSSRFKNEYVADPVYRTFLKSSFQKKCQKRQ

[7] = target: Hexokinase-1 (Homo sapiens, UniProt P19367); assay: SAR analysis of small molecule inhibitors of hexokinase domain containing I (HKDC1) in the hexokinase 1 selectivity assay. [Related pubchem assays (depositor defined):AID493160, AID493190]; type: functional
[8] = target: Eukaryotic translation initiation factor 4E (Mus musculus, UniProt P63073); assay: blockers of eIF4G binding by eIF4E – biochemical, TR-FRET, dose response (AID 855); type: functional;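 also: potency for disrupting eIF4E binding to eIF4GI seen as loss of FRET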
[9] = target: T1, Hexokinase HKDC1; assay: SAR analysis of small molecule inhibitors of hexokinase domain containing I (HKDC1). [Related pubchem assays (depositor defined):AID493160, AID493190]; type: functional
[10] = target: Induced myeloid leukemia cell differentiation protein Mcl-1 (Homo sapiens, UniProt Q07820); type: functional
[11] = test system: HEK293; assay: cells; conditions: Homo sapiens
[12] = target: T3, Rac GTPase-activating protein 1 (Homo sapiens, UniProt Q9H0H5); assay: blockers of MgcRacGAP-driven Rac1 GTP hydrolysis – biochemical, ADP Hunter fluorescence, primary and confirmatory, confirmation (AID 624330); type: functional
T3 sequence (Q9H0H5 whole entry): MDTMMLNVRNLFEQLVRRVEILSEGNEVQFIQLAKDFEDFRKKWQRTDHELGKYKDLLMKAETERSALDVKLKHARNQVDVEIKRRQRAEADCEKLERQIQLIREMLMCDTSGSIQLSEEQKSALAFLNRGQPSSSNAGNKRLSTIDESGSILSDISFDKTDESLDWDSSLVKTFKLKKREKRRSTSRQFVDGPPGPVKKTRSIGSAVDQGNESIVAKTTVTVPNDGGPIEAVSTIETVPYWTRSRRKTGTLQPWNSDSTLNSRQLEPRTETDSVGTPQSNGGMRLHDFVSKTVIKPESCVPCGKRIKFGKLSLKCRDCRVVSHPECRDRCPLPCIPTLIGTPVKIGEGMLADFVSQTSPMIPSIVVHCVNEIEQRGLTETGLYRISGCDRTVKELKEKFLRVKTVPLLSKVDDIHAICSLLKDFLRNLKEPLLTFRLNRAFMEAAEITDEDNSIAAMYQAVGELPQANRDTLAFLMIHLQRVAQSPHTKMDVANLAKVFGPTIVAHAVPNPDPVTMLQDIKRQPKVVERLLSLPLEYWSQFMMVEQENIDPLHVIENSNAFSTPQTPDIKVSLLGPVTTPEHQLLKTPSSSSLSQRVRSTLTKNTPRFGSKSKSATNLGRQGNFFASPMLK

[13] = decrease of insulin promoter-GFP reporter – imaging, high-content screening, mouse beta cells (AID 1628); type: functional; conditions: MIN6
[14] = test system: HEK293; assay: cells; conditions: Homo sapiens; remark: listed apart in the source
[15] = MIN6 cell viability loss – mouse insulinoma, cytotoxicity control, dose response (AID 2122); type: functional;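 also: confirmatory high-throughput counterscreen run to flag cytotoxic compounds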
[16] = test system: H4; assay: Luminescence Cell-Based Dose Response HTS to Identify Activators of 5'UTR Stem-Loop Driven Prion Protein mRNA Translation in H4 Neuroglioblastoma Cells. [Related pubchem assays: 1829 (Project Summary), 1814 (Primary HTS)]; type: functional; conditions: Homo sapiens
[17] = Luminescence Cell-Based Dose Response HTS to Identify Activators of Luciferase Translation or Activity in H4 […] Cells. [Related pubchem assays: 1829 (Project Summary), 1814 (Primary HTS)]; type: functional
[18] = Luminescence Cell-Based Dose Confirmation HTS to Identify Activators of 5'UTR Stem-Loop Driven Alpha-Synuclein mRNA Translation in H4 Neuroglioblastoma Cells. [Related pubchem assays: 1829 (Project Summary), 1814 (Primary HTS)]; type: functional
[19] = test system: HeLa; assay: ATP-based viability loss in HeLa cells – cell-based, CellTiter-Glo luminescence, cherry-pick samples, cytotoxicity control for MITF activator project, dose response (AID 540259); type: functional; conditions: Homo sapiens
[20] = Luminescence Cell-Based Dose Retest to Confirm Inhibitors of Cancer Stem Cells. [Related pubchem assays (depositor defined):AID2717, AID2721]; type: functional; conditions: Homo sapiens
[21] = viability loss of HMLE_sh_eGFP cells – cell-based, luminescence, counter-screen for HMLE_sh_ECad selective toxicity project, dose response (AID 463074); type: functional, Homo sapiens;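 also: HMLE human mammary epithelial cells expressing control shRNA against eGFP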
[22] = target: Dual specificity protein kinase CLK1 (Homo sapiens, UniProt P49759); assay: inhibition of human CLK1 activity – biochemical, cherry-picked samples, selectivity assay for Dyrk1A inhibitor project, dose response (AID 588811)
[23] = target: Dual specificity tyrosine-phosphorylation-regulated kinase 1A (Rattus norvegicus, UniProt Q63470); type: biochemical, Homo sapiens
[24] = target: Beta-galactosidase (Escherichia coli, UniProt Q8VNN2); assay: PubChem AID 485352; type: functional
[25] = target: Type-1 angiotensin II receptor (Homo sapiens, UniProt P30556); assay: antagonism of angiotensin II type 1 receptor – cell-based, uHTS hits, selectivity assay for APJ receptor antagonist project, dose response (AID 463214); type: functional;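 also: antagonist potency against angiotensin II stimulated AT1 response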
[26] = target: Heat shock protein HSP 90-alpha (Homo sapiens, UniProt P07900); type: functional, organism-based
[27] = target: T4, Microphthalmia-associated transcription factor (Homo sapiens, UniProt O75030); assay: reducers of TRPM1 reporter luminescence, concentration series – cell-based, SK-MEL-5, cherry-picked, set 3, MITF inhibitor project, dose response (AID 493073); type: functional;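 also: SK-MEL-5 melanoma cells with luciferase driven by the MITF target TRPM1 promoter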
T4 sequence (O75030 whole entry): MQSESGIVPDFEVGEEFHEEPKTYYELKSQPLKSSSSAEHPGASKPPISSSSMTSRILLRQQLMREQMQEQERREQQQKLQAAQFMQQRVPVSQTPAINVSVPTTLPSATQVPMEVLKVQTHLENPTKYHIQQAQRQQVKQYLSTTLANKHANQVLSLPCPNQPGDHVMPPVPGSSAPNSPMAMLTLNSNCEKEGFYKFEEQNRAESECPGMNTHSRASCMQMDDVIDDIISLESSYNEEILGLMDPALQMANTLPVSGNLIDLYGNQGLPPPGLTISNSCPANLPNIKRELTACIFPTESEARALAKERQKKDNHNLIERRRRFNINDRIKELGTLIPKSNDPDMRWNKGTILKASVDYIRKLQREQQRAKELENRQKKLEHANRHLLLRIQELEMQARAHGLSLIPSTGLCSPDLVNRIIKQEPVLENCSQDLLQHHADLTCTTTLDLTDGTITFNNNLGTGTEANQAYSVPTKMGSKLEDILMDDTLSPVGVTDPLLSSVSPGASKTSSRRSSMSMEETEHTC

[28] = target: Genome polyprotein (dengue virus type 2, UniProt P29990); assay: flavivirus cap methylation enzyme inhibition – biochemical, confirmation dose response, primary screen (AID 588689); type: functional
[29] = test system: Vero; assay: viability of Vero cells under compound – cytotoxicity control for flavivirus capping enzyme inhibitors (AID 588742); type: functional; conditions: Chlorocebus sabaeus
[30] = test system: A-375; assay: MITF: Counter assay: A375 proliferation Measured in Cell-Based System Using Plate Reader - 2084-03_Inhibitor_Dose_DryPowder_Activity. [Related pubchem assays (depositor defined):AID488944]; type: functional; conditions: Homo sapiens
[31] = target: Large T antigen (Simian virus 40, UniProt P03070); type: functional, Betapolyomavirus macacae;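 also: Confirmatory-stage PubChem screen for compounds that inhibit SV40 T antigen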
Sequence of Large T antigen (P03070 whole entry): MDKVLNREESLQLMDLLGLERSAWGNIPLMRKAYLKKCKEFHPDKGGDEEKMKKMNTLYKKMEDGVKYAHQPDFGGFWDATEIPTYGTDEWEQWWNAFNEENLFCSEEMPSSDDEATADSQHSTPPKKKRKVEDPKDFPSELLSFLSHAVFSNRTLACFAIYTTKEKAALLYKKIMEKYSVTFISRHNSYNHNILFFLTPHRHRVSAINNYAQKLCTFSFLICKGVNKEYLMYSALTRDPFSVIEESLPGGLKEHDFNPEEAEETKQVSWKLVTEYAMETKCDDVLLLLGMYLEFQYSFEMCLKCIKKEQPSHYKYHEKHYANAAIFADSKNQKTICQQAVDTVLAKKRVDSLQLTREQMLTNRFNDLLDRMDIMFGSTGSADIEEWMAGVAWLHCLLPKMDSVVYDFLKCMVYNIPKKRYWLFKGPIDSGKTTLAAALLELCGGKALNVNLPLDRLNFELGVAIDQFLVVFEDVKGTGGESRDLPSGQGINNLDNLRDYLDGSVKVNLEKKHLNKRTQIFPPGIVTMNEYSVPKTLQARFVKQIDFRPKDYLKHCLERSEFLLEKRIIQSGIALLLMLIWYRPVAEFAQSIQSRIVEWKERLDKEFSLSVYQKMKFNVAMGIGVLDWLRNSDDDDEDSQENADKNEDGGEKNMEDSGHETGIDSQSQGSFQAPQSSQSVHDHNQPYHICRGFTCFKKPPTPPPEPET

Sequence of Type-1 angiotensin II receptor (P30556 whole entry): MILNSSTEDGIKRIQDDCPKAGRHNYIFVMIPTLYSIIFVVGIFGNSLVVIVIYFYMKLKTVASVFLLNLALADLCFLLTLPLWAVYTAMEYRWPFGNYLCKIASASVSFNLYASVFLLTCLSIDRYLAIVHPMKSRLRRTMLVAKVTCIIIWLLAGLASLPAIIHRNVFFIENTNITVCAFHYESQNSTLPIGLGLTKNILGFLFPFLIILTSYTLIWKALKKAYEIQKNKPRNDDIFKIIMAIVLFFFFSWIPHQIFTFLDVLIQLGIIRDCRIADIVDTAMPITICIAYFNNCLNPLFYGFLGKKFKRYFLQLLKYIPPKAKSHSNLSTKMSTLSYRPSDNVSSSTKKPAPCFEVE
Sequence of Hexokinase-1 (P19367 whole entry, the tested form may be a part): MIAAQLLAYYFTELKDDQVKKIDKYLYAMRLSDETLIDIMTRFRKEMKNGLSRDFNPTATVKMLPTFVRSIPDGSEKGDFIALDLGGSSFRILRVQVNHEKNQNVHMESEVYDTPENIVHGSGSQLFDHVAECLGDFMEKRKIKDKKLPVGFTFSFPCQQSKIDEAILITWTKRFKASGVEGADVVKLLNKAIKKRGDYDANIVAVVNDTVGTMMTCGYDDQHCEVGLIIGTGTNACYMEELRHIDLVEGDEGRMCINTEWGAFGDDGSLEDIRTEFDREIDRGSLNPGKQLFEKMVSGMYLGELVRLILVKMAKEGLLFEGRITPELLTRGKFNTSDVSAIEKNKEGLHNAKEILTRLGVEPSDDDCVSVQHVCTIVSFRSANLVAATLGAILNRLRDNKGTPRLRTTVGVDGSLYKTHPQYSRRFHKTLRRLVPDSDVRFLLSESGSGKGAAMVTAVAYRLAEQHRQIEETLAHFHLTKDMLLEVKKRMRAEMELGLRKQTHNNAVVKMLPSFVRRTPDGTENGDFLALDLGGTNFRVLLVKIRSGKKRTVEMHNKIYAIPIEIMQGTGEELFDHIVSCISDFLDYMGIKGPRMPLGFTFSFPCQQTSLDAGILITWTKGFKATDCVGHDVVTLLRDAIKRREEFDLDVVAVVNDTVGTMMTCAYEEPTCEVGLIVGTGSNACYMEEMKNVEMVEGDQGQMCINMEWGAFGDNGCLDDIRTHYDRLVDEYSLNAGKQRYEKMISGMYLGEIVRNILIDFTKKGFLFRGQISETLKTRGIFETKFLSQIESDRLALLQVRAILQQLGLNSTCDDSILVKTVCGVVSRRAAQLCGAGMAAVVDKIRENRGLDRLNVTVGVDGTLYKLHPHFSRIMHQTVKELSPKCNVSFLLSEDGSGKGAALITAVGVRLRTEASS
Sequence of Genome polyprotein (P29990 2492-3391 limits assumed): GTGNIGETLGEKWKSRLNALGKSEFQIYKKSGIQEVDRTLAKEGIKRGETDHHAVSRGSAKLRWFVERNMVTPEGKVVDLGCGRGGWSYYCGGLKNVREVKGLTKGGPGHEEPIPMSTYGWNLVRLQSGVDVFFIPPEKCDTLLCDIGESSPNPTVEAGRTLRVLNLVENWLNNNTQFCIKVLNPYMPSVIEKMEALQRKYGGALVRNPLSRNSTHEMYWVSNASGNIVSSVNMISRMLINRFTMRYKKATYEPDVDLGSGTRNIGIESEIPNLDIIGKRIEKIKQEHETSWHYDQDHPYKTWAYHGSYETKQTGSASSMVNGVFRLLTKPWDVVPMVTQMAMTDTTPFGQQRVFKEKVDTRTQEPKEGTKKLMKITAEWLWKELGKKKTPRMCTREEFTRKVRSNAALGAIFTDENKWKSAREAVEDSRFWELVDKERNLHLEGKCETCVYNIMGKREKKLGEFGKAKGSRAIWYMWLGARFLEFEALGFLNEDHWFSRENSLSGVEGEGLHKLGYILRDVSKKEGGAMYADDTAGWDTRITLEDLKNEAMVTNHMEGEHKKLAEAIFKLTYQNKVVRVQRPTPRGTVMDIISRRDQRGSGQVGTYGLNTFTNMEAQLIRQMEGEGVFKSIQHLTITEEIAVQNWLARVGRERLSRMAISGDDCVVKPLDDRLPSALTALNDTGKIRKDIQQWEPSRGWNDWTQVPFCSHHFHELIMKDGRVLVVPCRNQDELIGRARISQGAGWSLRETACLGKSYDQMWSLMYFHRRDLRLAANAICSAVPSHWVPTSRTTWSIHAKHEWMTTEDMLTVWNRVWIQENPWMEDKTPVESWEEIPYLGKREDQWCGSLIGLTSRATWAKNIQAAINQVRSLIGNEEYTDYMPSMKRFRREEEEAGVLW
Sequence of Induced myeloid leukemia cell differentiation protein Mcl-1 (Q07820 whole entry): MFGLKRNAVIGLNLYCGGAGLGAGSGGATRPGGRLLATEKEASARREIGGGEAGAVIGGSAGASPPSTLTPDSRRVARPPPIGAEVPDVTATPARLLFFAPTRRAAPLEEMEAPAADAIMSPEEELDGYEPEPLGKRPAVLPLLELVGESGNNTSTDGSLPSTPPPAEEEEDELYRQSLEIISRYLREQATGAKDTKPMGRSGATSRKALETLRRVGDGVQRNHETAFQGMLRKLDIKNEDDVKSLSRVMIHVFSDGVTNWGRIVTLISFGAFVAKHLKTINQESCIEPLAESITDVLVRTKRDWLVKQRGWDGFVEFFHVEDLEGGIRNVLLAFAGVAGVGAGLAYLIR
Sequence of Beta-galactosidase (Q8VNN2 whole entry): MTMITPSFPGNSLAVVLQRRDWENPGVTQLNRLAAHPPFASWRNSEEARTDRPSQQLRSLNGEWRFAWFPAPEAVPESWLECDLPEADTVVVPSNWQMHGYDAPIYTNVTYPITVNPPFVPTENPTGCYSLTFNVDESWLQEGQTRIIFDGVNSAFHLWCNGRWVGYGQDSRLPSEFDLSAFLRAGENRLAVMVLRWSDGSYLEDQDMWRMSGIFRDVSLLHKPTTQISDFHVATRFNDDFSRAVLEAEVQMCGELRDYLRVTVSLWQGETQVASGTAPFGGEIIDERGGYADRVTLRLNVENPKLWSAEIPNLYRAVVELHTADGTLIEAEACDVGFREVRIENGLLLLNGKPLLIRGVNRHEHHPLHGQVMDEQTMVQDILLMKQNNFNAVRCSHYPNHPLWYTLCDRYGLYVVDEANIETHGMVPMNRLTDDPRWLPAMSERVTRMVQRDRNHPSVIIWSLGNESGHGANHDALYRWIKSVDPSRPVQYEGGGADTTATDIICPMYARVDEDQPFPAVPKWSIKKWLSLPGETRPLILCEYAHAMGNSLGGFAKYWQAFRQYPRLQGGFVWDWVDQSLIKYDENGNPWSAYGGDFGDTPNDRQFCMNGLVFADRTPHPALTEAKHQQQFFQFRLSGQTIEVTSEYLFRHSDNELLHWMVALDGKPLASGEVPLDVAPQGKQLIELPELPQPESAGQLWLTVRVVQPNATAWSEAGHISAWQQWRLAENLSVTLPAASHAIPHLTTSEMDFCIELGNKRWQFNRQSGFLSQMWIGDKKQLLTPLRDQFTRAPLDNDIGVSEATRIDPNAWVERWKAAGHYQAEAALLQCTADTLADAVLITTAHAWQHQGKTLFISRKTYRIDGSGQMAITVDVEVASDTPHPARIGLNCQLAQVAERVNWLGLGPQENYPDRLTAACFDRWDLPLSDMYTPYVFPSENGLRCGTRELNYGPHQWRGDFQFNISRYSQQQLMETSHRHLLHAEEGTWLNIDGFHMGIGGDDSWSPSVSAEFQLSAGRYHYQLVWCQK
Sequence of Dual specificity protein kinase CLK1 (P49759 whole entry): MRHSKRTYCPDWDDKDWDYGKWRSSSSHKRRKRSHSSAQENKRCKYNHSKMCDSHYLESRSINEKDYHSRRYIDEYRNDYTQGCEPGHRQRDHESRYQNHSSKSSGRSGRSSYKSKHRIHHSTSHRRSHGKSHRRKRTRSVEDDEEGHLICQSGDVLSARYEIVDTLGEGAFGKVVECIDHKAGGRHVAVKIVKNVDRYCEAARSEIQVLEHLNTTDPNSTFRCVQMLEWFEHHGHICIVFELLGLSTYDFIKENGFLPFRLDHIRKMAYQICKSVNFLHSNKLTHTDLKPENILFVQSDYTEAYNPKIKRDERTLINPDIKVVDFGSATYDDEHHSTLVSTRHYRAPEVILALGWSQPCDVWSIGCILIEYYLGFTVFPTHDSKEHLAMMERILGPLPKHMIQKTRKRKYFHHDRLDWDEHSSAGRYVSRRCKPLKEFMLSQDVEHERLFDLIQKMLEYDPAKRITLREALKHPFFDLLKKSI
Sequence of Eukaryotic translation initiation factor 4E (P63073 whole entry, the tested form may be a part): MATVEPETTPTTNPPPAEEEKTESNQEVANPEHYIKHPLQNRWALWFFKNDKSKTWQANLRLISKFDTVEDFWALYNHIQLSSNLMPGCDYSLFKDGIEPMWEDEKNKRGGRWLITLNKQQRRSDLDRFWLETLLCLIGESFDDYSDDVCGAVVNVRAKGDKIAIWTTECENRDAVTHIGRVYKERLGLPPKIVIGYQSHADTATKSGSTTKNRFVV

## CCCCCCn1ccc(=N)cc1
[1]
  AC50: 3.13 µM (active)
[2]
  IC50: 15.8 µM (inactive)
[3]
  IC50: > 80 µM (inactive)
[4]
  IC50: 13 µM (active)

## Cc1ccc(C)c(S(=O)(=O)Nc2cc(SCC(=O)O)c(O)c3ccccc23)c1
[5]
  IC50: 2.96 µM (active)
[1]
  AC50: 4.28 µM (active)
[6]
  AC50: 4.94 µM (active)
[7]
  IC50: > 80 µM (inactive)
[8]
  IC50: > 64 µM (inactive)
[9]
  IC50: 10.2 µM (active)
[10]
  IC50: 13.8 µM (active)

## Nc1ccccc1Nc1cccc(C(F)(F)F)c1
[11]
  EC50: > 59.6 µM (inactive)
[12]
  IC50: 89 µM (active)
[13]
  IC50: 4.45 µM (active)
[14]
  EC50: > 59.6 µM (inactive)
[15]
  IC50: 5.09 µM (active)

## COC(=O)c1ccc(N2CCN(c3ccccc3)CC2)nc1
[16]
  EC50: 0.114 µM (active)
[17]
  EC50: > 120 µM (not active)
[18]
  EC50: > 120 µM (not active)
[19]
  AC50: 53.8 µM (active)

## COc1cc(NC(=O)c2cc(C)on2)cc(C(=O)Nc2cccc(C(F)(F)F)c2)c1
[20]
  AC50: 11.6 µM (active)
[21]
  AC50: 24.2 µM (active)

## Cc1nc(CNc2ncnc3ccc(-c4ccc5c(c4)OCO5)cc23)cs1
[22]
  AC50: 0.0354 µM (active)

## O=C(Nc1ccc2c[nH]nc2c1)c1ccccc1F
[16]
  EC50: > 120 µM (not active)
[23]
  AC50: 20.8 µM (active)

## O=C(CCC(=O)OCC(=O)c1cccc([N+](=O)[O-])c1)NC1CCCCC1
[24]
  EC50: > 40 µM (inactive)
[25]
  IC50: 25.2 µM (not active)

## O=C(O)/C=C/C(=O)c1ccc2c(c1)CCc1ccccc1-2
[26]
  AC50: 16.6 µM (active)
[27]
  AC50: 15 µM (active)
[28]
  IC50: 22.9 µM (active)
[29]
  CC50: 17.2 µM (active)
[30]
  AC50: 35 µM (active)
[31]
  IC50: 34.5 µM (active)
